{
  "source": "paper PMC6713216",
  "about": "“Dual-target anti-Alzheimer’s disease agents with both iron ion chelating and monoamine oxidase-B inhibitory activity” (Journal of Enzyme Inhibition and Medicinal Chemistry, 2019)",
  "key": {"[1]": {"assay": "Calculation of pFe3+ by HySS software from pKa and logβ values", "assay_type": "physicochemical", "description": "The values of pFe^3+ were calculated by HySS software according to the results of pKa1, pKa2, logβ1, logβ2, and logβ3 determined by the above methods. The basic parameters were set as follows: FeOH = –2.563, Fe(OH)2 = –6.205, Fe(OH)3 = –15.1, Fe2(OH)2 = –2.843, Fe3(OH)4 = –6.059, Fe(OH)4 = –21.883[23]."}, "[2]": {"assay": "Determination of iron(III) affinity (Logβ1, Logβ2, Logβ3) by spectrophotometric titration", "assay_type": "physicochemical", "conditions": "DMSO:KCl (0.1 M) = 2:3 (V/V), 25 °C", "description": "(§1) The automatic titration system used in the test consisted of an automatic titrator, a luminescence 759 s UV-Vis spectrophotometer, and a pH Meter (Mettler Toledo InLab Expert PRO/Mettler Toledo InLab Science). All instruments are controlled by a computer program.\n(§2) The testing solution (2:3 DMSO/KCl (0.1 M), V/V) was maintained at 25 °C using a TP-3A temperature controller. The cuvette is mounted on a spectrophotometer. The E0 and s of the pH Meter were calibrated by three standard solutions (pH = 6.86, 9.18, 4.00). KCl solution (0.1 M) was used to maintain the ionic strength. For the Fe(III) affinity evaluation, the ratio of compounds to iron ion was kept at 1.1:1 (n/n) when Logβ1 was measured; the ratio of compounds to iron ion was kept at 5:1 (n/n) when Logβ2 and Logβ3 were tested.\nA 45 ml KCl (0.1 M) solution was added to the cuvette (50 mm) and the pH value was acidified to 2.1. Then 30 μM DMSO solution of the testing compound and 60 μL acidic solution of FeCl3 (15 mM) were added separately, and the mixture was vigorously stirred. After the absorbance value is stabilised, a certain amount of HCl solution (4 M) was added by the automatic buret to reduce the pH of the solution by 0.1. After the system was equilibrated, the spectral scan was performed once after 20 min. This protocol was repeated until the specified endpoint of the pH value was reached. All data was recorded with the internal Visual Basic program, HypSpec2014 program was utilised for the data analysis.\nSimilarly, 45 ml KCl (0.1 M) solution was added to the cuvette (50 mm) and the pH value was acidified to 2.1. Then 30 μM DMSO solution of the testing compound and 60 μL acidic solution of FeCl3 (15 mM) were added separately, and the mixture was vigorously stirred. After the absorbance value is stabilised, a certain amount of KOH solution (0.1 M) was added by the automatic buret to increase the pH of the solution by 0.1. After the system was equilibrated, the spectral scan was performed once after 5 min. This protocol was repeated until the specified endpoint of the pH value was reached. All data were recorded with the internal Visual Basic program, HypSpec2014 program was utilised for the data analysis[5]^,[21]^,[22]."}, "[3]": {"set-up": "method as in ref 17 = [17]; 17 Li Z-S , Qiao R-P , Yang Z-J , et al. One-step synthesis of novel tricyclic isomeric azidonucleosides . Tetrahedron Asymmetry 2006; 17 : 1056 – 61 .", "conditions": "cited from earlier work"}, "[4]": {"assay": "pKa determination by automatic spectrophotometric titration", "assay_type": "physicochemical", "conditions": "DMSO:KCl (0.1 M) = 2:3 (V/V), 25 °C", "description": "as §1, §2\nThe titration was performed in a 50 mm path length cuvette. 45 ml KCl (0.1 M) solution, 40 μL of saturated EDTA solution were added to the cuvette. The pH value of the solution was acidified to 2.0 with hydrochloric acid (1.5 M). Then 20 μL of test compound DMSO solution (30 μM/L) was added and stirred vigorously. By adding KOH solution (0.1 M) from the automatic buret, the pH value of the solution was increased by 0.1. […] Adding KOH solution (0.1 M) and repeated the automatic process until the specified endpoint of pH value was reached. All data were recorded internally by the Visual Basic program, and the test results are analysed by the HypSpec2014 program."}, "[5]": {"set-up": "method as in ref 17 = [17]; 17 Li Z-S , Qiao R-P , Yang Z-J , et al.  . Tetrahedron Asymmetry 2006; 17 : 1056 – 61 .", "conditions": "cited from earlier work"}, "[6]": {"set-up": "method as in ref 17 = [17]; 17 Li Z-S , Qiao R-P , Yang Z-J , et al. One-step synthesis of novel tricyclic isomeric azidonucleosides . Tetrahedron Asymmetry 2006; 17 : 1056 – 61 .", "conditions": "cited from earlier work", "remark": "listed apart in the source"}, "[7]": {"assay": "Determination of iron(III) affinity (Logβ1, Logβ2, Logβ3) by spectrophotometric titration", "assay_type": "physicochemical", "conditions": "measured in 0.1 M KCl solution"}},
  "note": "Like-named read-outs stand apart in the source and are kept apart here. Marks after values point to notes of the source that are not given here.",
  "data": [
    {"smiles": "Cc1c(O)c(=O)ccn1C", "note": "[Deferiprone]", "values": [
      {"measurement": "pFe3+", "setting": "[1]; DMSO:KCl (0.1 M) = 2:3 (V/V), calculated by HySS from pKa1, pKa2, logβ1-3", "result": 17.4},
      {"measurement": "pFe3+", "setting": "[1]; data measured in 0.1 M KCl solution", "result": "20.1^b"},
      {"measurement": "Logβ1", "setting": "[2]; compound:iron 1.1:1", "result": 14.83},
      {"measurement": "Logβ2", "setting": "[2]; compound:iron 5:1", "result": 25.7},
      {"measurement": "Logβ3", "setting": "[2]; compound:iron 5:1", "result": 33.6},
      {"measurement": "Logβ1", "setting": "[3]", "result": "15.03^c"},
      {"measurement": "Logβ2", "setting": "[3]", "result": "27.42^c"},
      {"measurement": "Logβ3", "setting": "[3]", "result": "37.35^c"},
      {"measurement": "pKa1", "setting": "[4]", "result": 3.68},
      {"measurement": "pKa2", "setting": "[5]", "result": "9.78^c"},
      {"measurement": "pFe3+", "setting": "[6]", "result": "20.7^c"},
      {"measurement": "Logβ2", "setting": "[7]", "result": "27.0^b"},
      {"measurement": "Logβ3", "setting": "[7]", "result": "36.4^b"}
    ]}
  ]
}
